According to article PMC9395446, “First-in-human phase 1/1b study to evaluate sitravatinib in patients with advanced solid tumors” (Investigational New Drugs, 2022):
Several values for one entry are separate records, joined by “and”; a condition that tells them apart may be missing. Equal values may be shown once. Read-outs that look alike come from different tables or passages of the source.

Experiments:
[1] = Plasma pharmacokinetics after single and multiple oral doses (noncompartmental analysis); format: in vivo, human; settings: for Cmax / Tmax / AUC / AUC(0-t) / AUC(0-inf) / Vd/F / half-life: human, plasma; for AUC(0-t): read-out: AUClast, geometric mean (CV%); for AUC(0-inf): read-out: AUC∞, geometric mean (CV%); for Vd/F: read-out: Vz/F, geometric mean (CV%)
Protocol: In the PK lead-in period, patients received a single oral dose of sitravatinib (10–200 mg) under fasted conditions with at least 200 mL of water, followed by PK sample collection for 3–7 days, depending on emerging PK information. After the PK lead-in period, patients commenced the daily regimen planned for their cohort. Blood samples were collected pre-dose and 0.5 (for 10 mg only), 1, 2, 4, 6, 8, 12, 24, 36, 48, 72 and 168 (for 20–200 mg dose levels) h post-dose from patients following a single oral dose, and at pre-dose, 0.5, 1, 2, 4, 6, 8, 12 and 24 h post-dose following multiple oral doses for the 10–200 mg levels.
PK samples were collected after a single dose during the PK lead-in period and following multiple oral doses during the study. Plasma PK samples were assayed for quantification of sitravatinib. The lower limit of quantification was 0.05 ng/mL. PK parameters were determined using a noncompartmental analysis approach including maximum (peak) concentration (Cmax), time to reach Cmax following drug administration (tmax), area under the plasma concentration–time curves (AUCs), apparent total clearance of the drug from plasma after oral administration, apparent volume of distribution during the terminal phase after administration and terminal elimination half-life (t1/2). PD effects were examined by analyzing VEGF-A ligand and soluble (s)-VEGF-R2 levels in patients’ plasma samples collected before and after sitravatinib administration.

[2] = rat, in vivo, 4 weeks
Protocol: The starting dose of 10 mg QD was selected based on non-clinical, 4-week toxicology studies conducted in rats and dogs. […] The proposed human dose was based on one-tenth of the STD10 in rats corrected for body surface area (mg/m^2).

[3] = 200 mg QD, Cycle 1 Day 15, single patient result

Q: What does the source list for `COCCNCc1ccc(-c2cc3nccc(Oc4ccc(NC(=O)C5(C(=O)Nc6ccc(F)cc6)CC5)cc4F)c3s2)nc1` [sitravatinib, Sitravatinib]?
A: CL/F at steady state, geometric mean (CV%) ([1]; 10 mg QD, Cycle 1 Day 8): 42.5 (42.8); 2 L/h; Cav,ss, geometric mean (CV%) ([1]; 10 mg QD, Cycle 1 Day 8): 9.81 (42.8); 2 ng/mL; CL/F at steady state, geometric mean (CV%) ([1]; 20 mg QD, Cycle 1 Day 15): 41.2 (6.4); 3 L/h; Cav,ss, geometric mean (CV%) ([1]; 20 mg QD, Cycle 1 Day 15): 20.2 (6.4); 3 ng/mL; CL/F at steady state, geometric mean (CV%) ([1]; 40 mg QD, Cycle 1 Day 15): 64.6 (156.5); 5 L/h; Cav,ss, geometric mean (CV%) ([1]; 40 mg QD, Cycle 1 Day 15): 25.8 (156.5); 5 ng/mL; CL/F at steady state, geometric mean (CV%) ([1]; 80 mg QD, Cycle 1 Day 15): 65.7 (104.9); 5 L/h; Cav,ss, geometric mean (CV%) ([1]; 80 mg QD, Cycle 1 Day 15): 50.7 (104.9); 5 ng/mL; CL/F at steady state, geometric mean (CV%) ([1]; 110 mg QD, Cycle 1 Day 15): 48.9 (44.5); 3 L/h; Cav,ss, geometric mean (CV%) ([1]; 110 mg QD, Cycle 1 Day 15): 93.7 (44.5); 3 ng/mL; Interpatient variability for Cmax and AUCτ,ss ([1]; 120 mg QD): ~ 60%; CL/F at steady state, geometric mean (CV%) ([1]; 120 mg QD, Cycle 1 Day 15): 75.0 (59.1); 3 L/h; Cav,ss, geometric mean (CV%) ([1]; 120 mg QD, Cycle 1 Day 15): 66.7 (59.1); 3 ng/mL; CL/F at steady state, geometric mean (CV%) ([1]; 150 mg QD, Cycle 1 Day 15): 68.8 (46.5); 18 L/h; Cav,ss, geometric mean (CV%) ([1]; 150 mg QD, Cycle 1 Day 15): 90.9 (46.5); 18 ng/mL; CL/F at steady state [1, 3]: 48.4 (NA); 1 L/h; Cav,ss [1, 3]: 172 (NA); 1 ng/mL; Time by which steady-state appeared to be reached ([1]; QD dosing): cycle 1 day 8; Cmax ([1]; oral, 10 mg, 10 mg QD, Cycle 1 Day 8, read-out: Cmax,ss, geometric mean (CV%)): 11.4 ng/mL; Tmax ([1]; oral, 10 mg, 10 mg QD, Cycle 1 Day 8, read-out: tmax,ss, median (min–max)): 2 h; Cmax ([1]; oral, 10 mg, single dose 10 mg, read-out: Cmax, geometric mean (CV%)): 3.54 ng/mL; Tmax ([1]; oral, 10 mg, single dose 10 mg, read-out: tmax, median (min–max)): 5.03 h; Cmax ([1]; oral, 20 mg, 20 mg QD, Cycle 1 Day 15, read-out: Cmax,ss, geometric mean (CV%)): 23.7 ng/mL; Tmax ([1]; oral, 20 mg, 20 mg QD, Cycle 1 Day 15, read-out: tmax,ss, median (min–max)): 8.13 h; Cmax ([1]; oral, 20 mg, single dose 20 mg, read-out: Cmax, geometric mean (CV%)): 5.71 ng/mL; Tmax ([1]; oral, 20 mg, single dose 20 mg, read-out: tmax, median (min–max)): 8.04 h; Cmax ([1]; oral, 40 mg, 40 mg QD, Cycle 1 Day 15, read-out: Cmax,ss, geometric mean (CV%)): 32.5 ng/mL; Tmax ([1]; oral, 40 mg, 40 mg QD, Cycle 1 Day 15, read-out: tmax,ss, median (min–max)): 4 h; Cmax ([1]; oral, 40 mg, single dose 40 mg, read-out: Cmax, geometric mean (CV%)): 11.8 ng/mL; Tmax ([1]; oral, 40 mg, single dose 40 mg, read-out: tmax, median (min–max)): 4.05 h; Cmax ([1]; oral, 80 mg, 80 mg QD, Cycle 1 Day 15, read-out: Cmax,ss, geometric mean (CV%)): 69.2 ng/mL; Tmax ([1]; oral, 80 mg, 80 mg QD, Cycle 1 Day 15, read-out: tmax,ss, median (min–max)): 4.01 h; Cmax ([1]; oral, 80 mg, single dose 80 mg, read-out: Cmax, geometric mean (CV%)): 31.7 ng/mL; Tmax ([1]; oral, 80 mg, single dose 80 mg, read-out: tmax, median (min–max)): 6 h; Cmax ([1]; oral, 110 mg, 110 mg QD, Cycle 1 Day 15, read-out: Cmax,ss, geometric mean (CV%)): 119 ng/mL; Tmax ([1]; oral, 110 mg, 110 mg QD, Cycle 1 Day 15, read-out: tmax,ss, median (min–max)): 2 h; Cmax ([1]; oral, 110 mg, single dose 110 mg, read-out: Cmax, geometric mean (CV%)): 49.1 ng/mL; Tmax ([1]; oral, 110 mg, single dose 110 mg, read-out: tmax, median (min–max)): 3.02 h; Cmax ([1]; oral, 120 mg, 120 mg QD, Cycle 1 Day 15, read-out: Cmax,ss, geometric mean (CV%)): 80.4 ng/mL; Tmax ([1]; oral, 120 mg, 120 mg QD, Cycle 1 Day 15, read-out: tmax,ss, median (min–max)): 4 h; Cmax ([1]; oral, 120 mg, single dose 120 mg, read-out: Cmax, geometric mean (CV%)): 23.8 ng/mL; Tmax ([1]; oral, 120 mg, single dose 120 mg, read-out: tmax, median (min–max)): 8.87 h; Cmax ([1]; oral, 150 mg, 150 mg QD, Cycle 1 Day 15, read-out: Cmax,ss, geometric mean (CV%)): 114 ng/mL; Tmax ([1]; oral, 150 mg, 150 mg QD, Cycle 1 Day 15, read-out: tmax,ss, median (min–max)): 7.83 h; Cmax ([1]; oral, 150 mg, single dose 150 mg, read-out: Cmax, geometric mean (CV%)): 69.3 ng/mL; Tmax ([1]; oral, 150 mg, single dose 150 mg, read-out: tmax, median (min–max)): 6 h; Cmax ([1]; oral, 200 mg, 200 mg QD, Cycle 1 Day 15, single patient result, read-out: Cmax,ss): 221 ng/mL; Tmax ([1]; oral, 200 mg, 200 mg QD, Cycle 1 Day 15, single patient result, read-out: tmax,ss, median (min–max)): 10 h; Cmax ([1]; oral, 200 mg, single dose 200 mg, read-out: Cmax, geometric mean (CV%)): 85 ng/mL; Tmax ([1]; oral, 200 mg, single dose 200 mg, read-out: tmax, median (min–max)): 5.94 h; AUC ([1]; oral, 10 mg QD, Cycle 1 Day 8, read-out: AUCτ,ss, geometric mean (CV%)): 235 ng·h/mL; AUC ([1]; oral, 20 mg QD, Cycle 1 Day 15, read-out: AUCτ,ss, geometric mean (CV%)): 486 ng·h/mL; AUC ([1]; oral, 40 mg QD, Cycle 1 Day 15, read-out: AUCτ,ss, geometric mean (CV%)): 619 ng·h/mL; AUC ([1]; oral, 80 mg QD, Cycle 1 Day 15, read-out: AUCτ,ss, geometric mean (CV%)): 1220 ng·h/mL; AUC ([1]; oral, 110 mg QD, Cycle 1 Day 15, read-out: AUCτ,ss, geometric mean (CV%)): 2250 ng·h/mL; AUC ([1]; oral, 120 mg QD, Cycle 1 Day 15, read-out: AUCτ,ss, geometric mean (CV%)): 1600 ng·h/mL; AUC ([1]; oral, 150 mg QD, Cycle 1 Day 15, read-out: AUCτ,ss, geometric mean (CV%)): 2180 ng·h/mL; AUC ([1]; oral, 200 mg QD, Cycle 1 Day 15, single patient result, read-out: AUCτ,ss): 4130 ng·h/mL; AUC(0-t) ([1]; oral, single dose 10 mg): 149 ng·h/mL; AUC(0-inf) ([1]; oral, single dose 10 mg): 165 ng·h/mL; Vd/F ([1]; oral, single dose 10 mg): 3720 L; half-life ([1]; oral, single dose 10 mg, read-out: t1/2, arithmetic mean (CV%) (converted)): 43.6 h; AUC(0-t) ([1]; oral, single dose 20 mg): 300 ng·h/mL; AUC(0-inf) ([1]; oral, single dose 20 mg): 501 ng·h/mL; Vd/F ([1]; oral, single dose 20 mg): 2500 L; half-life ([1]; oral, single dose 20 mg, read-out: t1/2, arithmetic mean (CV%) (converted)): 47 h; AUC(0-t) ([1]; oral, single dose 40 mg): 509 ng·h/mL; AUC(0-inf) ([1]; oral, single dose 40 mg): 478 ng·h/mL; Vd/F ([1]; oral, single dose 40 mg): 5610 L; half-life ([1]; oral, single dose 40 mg, read-out: t1/2, arithmetic mean (CV%) (converted)): 46.5 h; AUC(0-t) ([1]; oral, single dose 80 mg): 1430 ng·h/mL; AUC(0-inf) ([1]; oral, single dose 80 mg): 1540 ng·h/mL; Vd/F ([1]; oral, single dose 80 mg): 3360 L; half-life ([1]; oral, single dose 80 mg, read-out: t1/2, arithmetic mean (CV%) (converted)): 46.2 h; AUC(0-t) ([1]; oral, single dose 110 mg): 2030 ng·h/mL; AUC(0-inf) ([1]; oral, single dose 110 mg): 2920 ng·h/mL; Vd/F ([1]; oral, single dose 110 mg): 2410 L; half-life ([1]; oral, single dose 110 mg, read-out: t1/2, arithmetic mean (CV%) (converted)): 44.7 h; AUC(0-t) ([1]; oral, single dose 120 mg): 1210 ng·h/mL; AUC(0-inf) ([1]; oral, single dose 120 mg): 1320 ng·h/mL; Vd/F ([1]; oral, single dose 120 mg): 6370 L; half-life ([1]; oral, single dose 120 mg, read-out: t1/2, arithmetic mean (CV%) (converted)): 49.3 h; AUC(0-t) ([1]; oral, single dose 150 mg): 2940 ng·h/mL; AUC(0-inf) ([1]; oral, single dose 150 mg): 3560 ng·h/mL; Vd/F ([1]; oral, single dose 150 mg): 2510 L; half-life ([1]; oral, single dose 150 mg, read-out: t1/2, arithmetic mean (CV%) (converted)): 42.1 h; AUC(0-t) ([1]; oral, single dose 200 mg): 3300 ng·h/mL; AUC(0-inf) ([1]; oral, single dose 200 mg): 4000 ng·h/mL; Vd/F ([1]; oral, single dose 200 mg): 3660 L; half-life ([1]; oral, single dose 200 mg, read-out: t1/2, arithmetic mean (CV%) (converted)): 51.5 h; Tmax ([1]; po, multiple oral 10–150 mg QD, fasting, read-out: Median tmax,ss, range across dose levels): 2 to 8.13 h; Tmax ([1]; po, single oral 10–200 mg, fasting, read-out: Median tmax, range across dose levels): 3.02 to 8.87 h; half-life ([1]; single oral 10–200 mg, fasting, read-out: Arithmetic mean terminal elimination t1/2, range across dose levels): 42.1 to 51.5 h; AUCτ,ss accumulation ratio, range ([1]; multiple QD doses): 2.13–8.34; Cmax,ss accumulation ratio, range ([1]; multiple QD doses): 1.82–6.89; Dose proportionality of exposure (Cmax and AUCs) ([1]; single and multiple doses 10–200 mg, power model): approximately dose-proportional; CL/F, geometric mean (CV%) ([1]; single dose 10 mg): 60.5 (58.3); 3 L/h; CL/F, geometric mean (CV%) ([1]; single dose 20 mg): 39.9 (63.4); 3 L/h; CL/F, geometric mean (CV%) ([1]; single dose 40 mg): 83.7 (194.6); 4 L/h; CL/F, geometric mean (CV%) ([1]; single dose 80 mg): 52.0 (104.1); 7 L/h; CL/F, geometric mean (CV%) ([1]; single dose 110 mg): 37.6 (61.0); 3 L/h; CL/F, geometric mean (CV%) ([1]; single dose 120 mg): 91.2 (109.5); 4 L/h; CL/F, geometric mean (CV%) ([1]; single dose 150 mg): 42.1 (63.7); 12 L/h; CL/F, geometric mean (CV%) ([1]; single dose 200 mg): 50.0 (126.1); 3 L/h; Peak to trough ratio (PTR) in plasma at steady state ([1]; steady state): 1.5–2.1 fold and 1.5- to 2.1 fold; Highest dose not exceeding the severely toxic dose in 10% of animals (STD10) [2]: 10 mg/kg
